Values after ≈ are worked out from the molar mass of the structure shown. Like-named read-outs stand apart in the source and are kept apart here.
What was measured:
Assay type in all cases: cell-based
[1] = tested on: Pseudomonas aeruginosa (ATCC27853); assay: Microtitre plate assay, IC90 determination, PAE 27853
Experimental: (§1) The bacteria used in this study were grown overnight in flasks containing 100 ml Mueller-Hinton Broth (Becton Dickinson—cat. no. 275730) in sterile de-ionized water, with shaking, at 37° C. Stocks (0.5 ml/tube) were stored at −70° C. until use. Bacteria titrations were performed in microtiter plates to detect the TCID50, in which the TCID50 represents the dilution that gives rise to bacterial growth in 50% of inoculated cultures.
(§2) In general, an inoculum level of approximately 100 TCID50 was used for susceptibility testing.
(§3) Flat-bottom, sterile 96-well plastic microtiter plates were filled with 180 μl of sterile deionized water, supplemented with 0.25% BSA. Subsequently, stock solutions (7.8× final test concentration) of compounds were added in 45 μl volumes in column 2 Serial five-fold dilutions (45 μl in […]) were made directly in the microtiter plates from column 2 to reach column 11. Untreated control samples with (column 1) and without (column 12) inoculum were included in each microtiter plate. Depending on the bacteria type, approximately 10 to 60 CFU per well of bacteria inoculum (100 TCID50), in a volume of 100 μl in 2.8× Mueller-Hinton broth medium, was added to the rows A to H, except column 12. The same volume of broth medium without inoculum was added to column 12 in row A to H. The cultures were incubated at 37° C. for 24 hours under a normal atmosphere (incubator with open air valve and continuous ventilation). At the end of incubation, one day after inoculation, the bacterial growth was quantitated fluorometrically. Therefore resazurin (0.6 mg/ml) was added in a volume of 20 μl to all wells 3 hours after inoculation, and the plates were re-incubated overnight. A change in colour from blue to pink indicated the growth of bacteria. The fluorescence was read in a computer-controlled fluorometer (Cytofluor Biosearch) at an excitation wavelength of 530 nm and an emission wavelength of 590 nm. The % growth inhibition achieved by the compounds was calculated according to standard methods.

M. Smegmatis ATCC607 = assay: In-vitro anti-bacterial activity against strain M. smegmatis ATCC607; settings: for IC90: Mycolicibacterium smegmatis
Experimental: Flat-bottom, sterile 96-well plastic microtiter plates were filled with 180 μl of sterile deionized water, supplemented with 0.25% BSA. Subsequently, stock solutions (7.8× final test concentration) of compounds were added in 45 μl volumes to a series of duplicate wells in column 2 so as to allow evaluation of their effects on bacterial growth. Serial five-fold dilutions (45 μl in 180 μl) were made directly in the microtiter plates from column 2 to 11 using a customised robot system (Zymark Corp., Hopkinton, Mass.). Pipette tips were changed after every 3 dilutions to minimize pipetting errors with high hydrophobic compounds. Untreated control samples with (column 1) and without (column 12) inoculum were included in each microtiter plate. Approximately 250 CFU per well of bacteria inoculum, in a volume of 100 μl in 2.8× Mueller-Hinton broth medium, was added to the rows A to H, except column 12. The same volume of broth medium without inoculum was added to column 12 in row A to H. The cultures were incubated at 37° C. for 48 hours in a humidified 5% CO2 atmosphere (incubator with open air valve and continuous ventilation). At the end of incubation, two days after inoculation, the bacterial growth was quantitated fluorometrically. Therefore Alamar Blue (10×) was added to all wells in a volume of 20 μl and plates were incubated for another 2 hours at […]
The fluorescence was read in a computer-controlled fluorometer (Cytofluor, Biosearch) at an excitation wavelength of 530 nm and an emission wavelength of 590 nm (gain 30).

[2] = tested on: Staphylococcus aureus (ATCC29213); assay: Microtitre plate assay, IC90 determination, STA 29213
Experimental: as §1, §2, §3

[3] = tested on: Enterococcus faecalis (ATCC29212); assay: Microtitre plate assay, IC90 determination, EFA 29212
Experimental: as §1, §2, §3

[4] = tested on: Streptococcus pneumoniae (ATCC6305); assay: Microtitre plate assay, IC90 determination, SPN 6305; settings: 90% inhibitory concentration for bacterial growth, resazurin
Experimental: as §1, §2, §3

[5] = tested on: Streptococcus pyogens (ATCC8668); assay: Microtitre plate assay, IC90 determination, SPY 8668
Experimental: as §1, §2, §3

[6] = tested on: methicilline resistant Staphylococcus aureus (MRSA) (a clinical isolate from the University of Antwerp); assay: Microtitre plate assay, IC90 determination, STA RMETH; settings: Staphylococcus aureus, 90% inhibitory concentration for bacterial growth, resazurin, read-out: IC90 (μg/ml) STA RMETH
Experimental: as §1, §2, §3

[7] = tested on: Staphylococcus aureus (ATCC25923); assay: Microtitre plate assay, IC90 determination, STA 25923
Experimental: as §1, §2, §3

[8] = Pseudomonas aeruginosa, ATCC27853, read-out: IC90 (μg/ml) PAE 27853
[9] = ATCC607, 48 h, read-out: M. smegmatis IC90 (μg/ml), 90% inhibitory concentration for bacterial growth, Alamar Blue fluorescence
[10] = Enterococcus faecalis, ATCC29212, read-out: IC90 (μg/ml) EFA 29212
[11] = Streptococcus pneumoniae, ATCC6305, read-out: IC90 (μg/ml) SPN 6305, Streptococcus pneumoniae ATCC6305
[12] = Streptococcus, ATCC8668, read-out: IC90 (μg/ml) SPY 8668
[13] = Pseudomonas aeruginosa ATCC27853, 90% inhibitory concentration for bacterial growth, resazurin, read-out: IC90 (μg/ml) PAE 27853
[14] = ATCC607, 90% inhibitory concentration for bacterial growth, 48 hours, Alamar Blue fluorescence, read-out: M. smegmatis IC90
[15] = Staphylococcus aureus ATCC29213, 90% inhibitory concentration for bacterial growth, resazurin, read-out: IC90 (μg/ml) STA 29213
[16] = Staphylococcus aureus ATCC25923, 90% inhibitory concentration for bacterial growth, resazurin, read-out: IC90 (μg/ml) STA 25923
[17] = Enterococcus faecalis ATCC29212, 90% inhibitory concentration for bacterial growth, resazurin, read-out: IC90 (μg/ml) EFA 29212
[18] = Streptococcus pneumoniae ATCC6305, read-out: IC90 (μg/ml) SPN 6305
[19] = Streptococcus pyogens ATCC8668, 90% inhibitory concentration for bacterial growth, resazurin, read-out: IC90 (μg/ml) SPY 8668
[20] = Pseudomonas aeruginosa ATCC27853, 90% inhibitory concentration for bacterial growth, resazurin
[21] = 90% inhibitory concentration for bacterial growth, 48 hours, Alamar Blue fluorescence
[22] = Staphylococcus aureus ATCC29213, 90% inhibitory concentration for bacterial growth, resazurin
[23] = Enterococcus faecalis ATCC29212, 90% inhibitory concentration for bacterial growth, resazurin
[24] = Streptococcus pneumoniae ATCC6305
[25] = Streptococcus pyogens ATCC8668, 90% inhibitory concentration for bacterial growth, resazurin

| Compound | IC90 [1, 13] [µg/mL] | IC90 (M. Smegmatis ATCC607; [14]) [µg/mL] | IC90 [2, 15] [µg/mL] | IC90 [3, 17] [µg/mL] | IC90 [4, 18] [µg/mL] | IC90 [5, 19] [µg/mL] | IC90 (μg/ml) PAE 27853 [1, 20] [µg/mL] | M. smegmatis IC90 (M. Smegmatis ATCC607; [21]) [µg/mL] | IC90 (μg/ml) STA 29213 [2, 22] [µg/mL] | IC90 (μg/ml) EFA 29212 [3, 23] [µg/mL] | IC90 (μg/ml) SPN 6305 [4, 24] [µg/mL] | IC90 (μg/ml) SPY 8668 [5, 25] [µg/mL] | other results |
| --- | --- | --- | --- | --- | --- | --- | --- | --- | --- | --- | --- | --- | --- |
| COc1nc2ccc(-c3ccccc3)cc2cc1C(/C(=C/CN(C)C)c1ccccc1)c1ccccc1 (stereo not drawn) [Compound 11] |  |  |  |  |  |  |  |  |  |  |  |  | IC90 [1, 8]: 7.68 µg/mL (≈ 15.8 µM); IC90 (M. Smegmatis ATCC607; [9]): 1.53 µg/mL (≈ 3.16 µM); IC90 ([2]; Staphylococcus aureus, ATCC29213, read-out: IC90 (μg/ml) STA 29213): 1.53 µg/mL (≈ 3.16 µM); IC90 [3, 10]: 15.3 µg/mL (≈ 31.6 µM); IC90 [4, 11]: 1.22 µg/mL (≈ 2.52 µM); IC90 [5, 12]: 7.68 µg/mL (≈ 15.8 µM) |
| COc1nc2ccc(Br)cc2cc1/C(=C(/CCN(C)C)c1cccc2ccccc12)c1ccccc1 [Compound 9] | 9.56 (≈ 17.8 µM) | 1.7 (≈ 3.16 µM) | 2.69 (≈ 5 µM) | 10.7 (≈ 19.9 µM) | 9.56 (≈ 17.8 µM) | 10.7 (≈ 19.9 µM) |  |  |  |  |  |  | IC90 [6]: 3.81 µg/mL (≈ 7.09 µM); IC90 [7, 16]: 5.38 µg/mL (≈ 10 µM) |
| COc1nc2ccc(C)cc2cc1C(C(=CCN(C)C)c1ccccc1)c1ccccc1 (racemic) [Compound 30] |  |  |  |  |  |  | 13.36 (≈ 31.6 µM) | 2.67 | 6.7 (≈ 15.9 µM) | 11.91 (≈ 28.2 µM) | 1.34 (≈ 3.17 µM) | 6.7 (≈ 15.9 µM) |  |
| COc1nc2ccc(Br)cc2cc1C(/C(=C/CN(C)C)c1cccc2ccccc12)c1ccccc1 (stereo not drawn) [Compound 10] | 21.4 (≈ 39.8 µM) | 0.43 (≈ 0.8 µM) | 4.79 (≈ 8.91 µM) | 5.38 (≈ 10 µM) | 12 (≈ 22.4 µM) | 9.56 (≈ 17.8 µM) |  |  |  |  |  |  | IC90 [6]: 12 µg/mL (≈ 22.4 µM); IC90 [7, 16]: 4.27 µg/mL (≈ 7.94 µM) |
| COc1nc2ccc(-c3ccccc3)cc2cc1C(C(=CCN(C)C)c1cccc2ccccc12)c1ccccc1 (mixture of isomers) [Compound 32] |  |  |  |  |  |  | 3.79 | 1.69 | 1.69 | 9.51 | 1.9 | 3.79 |  |
| COc1nc2ccc(Br)cc2cc1C(/C(=C/CN(C)C)c1ccsc1)c1ccccc1 (stereo not drawn) [Compound 17] | 44 (≈ 89.1 µM) | 39.2 (≈ 79.4 µM) | 15.6 (≈ 31.6 µM) | 39.2 (≈ 79.4 µM) | 7.82 (≈ 15.8 µM) | 19.6 (≈ 39.8 µM) |  |  |  |  |  |  |  |
| COc1nc2ccc(Br)cc2cc1C(/C(=C/CN(C)C)CCc1ccccc1)c1ccccc1 (stereo not drawn) [Compound 13] |  |  |  |  |  |  |  |  |  |  |  |  | IC90 [1, 8]: 12.2 µg/mL (≈ 23.7 µM); IC90 (M. Smegmatis ATCC607; [9]): 1.73 µg/mL (≈ 3.36 µM); IC90 ([7]; Staphylococcus aureus, ATCC25923, read-out: IC90 (μg/ml) STA 25923): 10.9 µg/mL (≈ 21.2 µM); IC90 [3, 10]: 12.2 µg/mL (≈ 23.7 µM); IC90 [4, 11]: 8.67 µg/mL (≈ 16.8 µM); IC90 [5, 12]: 9.73 µg/mL (≈ 18.9 µM) |
| COc1nc2ccc(Br)cc2cc1C(=C(CCN(C)C)c1cccc(F)c1)c1ccccc1 [Compound 38] |  |  |  |  |  |  | 8.99 (≈ 17.8 µM) | 8.01 | 10.08 (≈ 19.9 µM) | 8.01 (≈ 15.8 µM) | 8.01 (≈ 15.8 µM) | 3.58 (≈ 7.08 µM) |  |
| COc1nc2ccc(Br)cc2cc1C(/C(C)=C/CN(C)C)c1ccccc1 (stereo not drawn) [Compound 14] | 37.9 (≈ 89.1 µM) | 1.35 (≈ 3.17 µM) | 33.8 (≈ 79.4 µM) | 37.9 (≈ 89.1 µM) | 1.35 (≈ 3.17 µM) | 26.8 (≈ 63.1 µM) |  |  |  |  |  |  |  |
| CSc1nc2ccc(-c3ccccc3)cc2cc1C(=C(CCN(C)C)c1ccccc1)c1ccccc1 (single isomer, unassigned) [Compound 40] |  |  |  |  |  |  |  | 1.58 | 19.93 (≈ 39.8 µM) | 15.83 (≈ 31.6 µM) | 3.98 (≈ 7.95 µM) | 7.94 (≈ 15.9 µM) |  |
